Reference: patent publication US6741954B2, “Selection method for odorants” (Symrise GmbH & Co. KG, priority 2000, dated 2004)
Read-outs that look alike come from different tables or passages of the source.

Key:
Assay type in all cases: physicochemical
[1] = Headspace above the candle wax: relative partition parameter (SPME-GC); settings: log of amount in headspace relative to amount in candle wax; 5% odorant mixture, grated nonburning candle, SPME 15 min
Method: (§1) The procedure is analogous in all examples.
(§2) The example reflects the scent impression, which is perceived from a nonburning candle. The mixture of 39 odorants is incorporated into a candle in an amount of 5%. 20 g of the grated candle are transferred to a 100 ml Erlenmeyer flask sealed with a septum. The headspace above the candle is extracted using a SPME over 15 min. […] The analytical results are then used mathematically as described above.

[2] = Headspace above the washing powder: relative partition parameter (SPME-GC)
Method: as §1
as §2, with “freshly opened pack of laundry detergent.” for “nonburning candle.”, “in the above-mentioned washing powder” for “into a candle”, “0.5%.” for “5%.”, “washing powder” for “grated candle”, “shampoo” for “candle”

[3] = Headspace above the soap bar: relative partition parameter (SPME-GC)
Method: as §1
The example reflects the scent impression, which is perceived from a fresh bar of soap. […] 20 g of the grated soap are transferred to a 100 ml Erlenmeyer flask sealed with a septum. The headspace above the shampoo is extracted using a SPME over 15 min. […] The analytical results are then used mathematically as described above.

[4] = Headspace above the fresh gel room air freshener: relative partition parameter (SPME-GC); settings: log of amount in headspace relative to amount in gel; 5% odorant mixture, 10 liter vessel, 1 h, SPME 15 min
Method: as §1
The example reflects the scent impression, which is perceived above a fresh gel room air freshener. The mixture of 39 odorants is incorporated into an air freshener in an amount of 5%. 100 g of the air freshener are placed in its customary presentation form in a large sealed 10 liter vessel. The air freshener is left to stand for one hour. The headspace above the air freshener is extracted using a SPME over 15 min. […] The analytical results are then used mathematically as described above.

[5] = Headspace above the shampoo: relative partition parameter (SPME-GC); settings: log of amount in headspace relative to amount in shampoo; 1% odorant mixture, SPME 15 min
Method: as §1
as §2, with “freshly opened bottle of shampoo.” for “nonburning candle.”, “the above-mentioned shampoo (1)” for “a candle”, “1%.” for “5%.”, “shampoo” for “grated candle”, “shampoo” for “candle”

[6] = Headspace above the solution of WC scented block cleaner: relative partition parameter (SPME-GC); settings: log of amount in headspace above 1% solution in water relative to amount in WC block; 1% odorant mixture, SPME 15 min
Method: as §1
as §2, with “WC scented block cleaner.” for “nonburning candle.”, “the toilet block” for “a candle”, “1%. A 1% solution” for “5%. 20 g”, “toilet block in water is prepared. 20 ml of this solution” for “grated candle”, “shampoo” for “candle”, “by means of” for “using”

[7] = Headspace above the wet washed hair: relative partition parameter headspace/shampoo (SPME-GC)
Method: as §1
The example reflects the scent impression, which is perceived from freshly washed hair. The shampoo is prepared as is generally customary. The mixture of 39 odorants is incorporated into the above-mentioned shampoo (1st) in an amount of 1%. A hair tress (2.5 g) is washed in 100 ml of a 20% shampoo solution in water by immersing 5-10 times and stirring, and then rinsed in 100 ml of clear water by immersing it three times. The hair tress is carefully patted with thin cellulose. The moist hair tress is transferred to a 100 ml Erlenmeyer flask sealed with a septum and left to stand for 3 h. The headspace above the washed and rinsed hair tress is extracted over 15 min using solid phase microextraction (SPME). The SPME needle is desorbed in a GC injector, and a gas chromatogram is recorded. […] The analytical results are then used mathematically as described above.

[8] = log of amount in headspace relative to amount in washing powder, 0.5% odorant mixture, SPME 15 min
[9] = log of amount in headspace relative to amount in soap, 1.2% odorant mixture, grated soap, SPME 15 min
[10] = log of amount in headspace above wet washed hair relative to amount in shampoo, 1% odorant mixture, 3 h standing, SPME 15 min

SMILES | Activity (logarithmic partition parameter above candle wax) [1] | Activity (logarithmic partition parameter above washing powder) [2, 8] | Activity (logarithmic partition parameter above soap) [3, 9] | Activity (logarithmic partition parameter above gel room air fresheners) [4] | Activity (logarithmic partition parameter above shampoo) [5] | Activity (logarithmic partition parameter above dissolved WC scented block cleaners) [6] | Activity (logarithmic partition parameter above wet hair) [7, 10] | Activity (logarithmic partition parameter above washing powder) [2] | Activity (logarithmic partition parameter above soap) [3] | Activity (logarithmic partition parameter above wet hair) [7]
CC(=O)OCc1ccccc1 [Benzyl acetate] | −0.244 | 0.224 | 0.538 | 0.594 | −0.293 | −1.552 | −1.006 | – | – | –
C=C1C2CCC(C2)C1(C)C (stereo not shown) [Camphene] | 0.783 | 0.357 | 0.392 | −0.116 | 0.777 | −1.348 | −0.721 | – | – | –
CC(C)=CCCC(C)CCO (stereo not shown) [Citronellol] | −1.159 | −0.780 | −0.787 | −0.158 | −1.406 | −1.575 | −1.818 | – | – | –
CC(=O)OC(C)(C)Cc1ccccc1 [DMBCA, dimethylbenzylcarbinyl acetate] | −0.856 | −0.041 | 0.059 | 0.125 | −0.513 | −0.992 | −1.127 | – | – | –
C=CC(C)CCCC(C)(C)O (stereo not shown) [Dihydromyrcenol] | −0.324 | 0.184 | 0.076 | 0.460 | −0.287 | −1.131 | −1.056 | – | – | –
CC(C)=CCC/C(C)=C/CO [Geraniol] | −1.273 | −0.976 | −0.952 | −0.365 | −1.839 | −2.045 | −2.043 | – | – | –
CC(=O)/C=C/C1C(C)=CCCC1(C)C (stereo not drawn) [Ionone, alpha] | −1.441 | −0.697 | −0.701 | −0.515 | −1.157 | −1.152 | −1.559 | – | – | –
CC(=O)/C=C/C1=C(C)CCCC1(C)C [Ionone, beta] | −1.606 | −0.778 | −0.837 | −0.662 | −1.282 | −0.819 | −1.636 | – | – | –
CC(C=O)Cc1ccc(C(C)(C)C)cc1 (stereo not shown) [Lilial] | −2.105 | −1.448 | −1.331 | −1.548 | −1.900 | −1.400 | −2.089 | – | – | –
C=CC(C)(O)CCC=C(C)C (stereo not shown) [Linalool] | −0.420 | 0.057 | −0.028 | 0.376 | −0.511 | −1.299 | −1.119 | – | – | –
OCCc1ccccc1 [PEA, phenylethyl alcohol] | −0.632 | −0.176 | 0.170 | 0.245 | −0.742 | −1.636 | −1.349 | – | – | –
CC(=O)OCC=C(C)C [Prenyl acetate] | 0.726 | 1.167 | 1.180 | 0.674 | 0.844 | −1.070 | −0.299 | – | – | –
CC(=O)OC(C)c1ccccc1 (stereo not shown) [Styrolyl acetate] | −0.341 | 0.246 | 0.486 | 0.568 | −0.232 | −1.320 | −1.029 | – | – | –
CC(=O)OC(C)(C)C1CC=C(C)CC1 (stereo not shown) [Terpinyl acetate] | −0.979 | – | – | −0.029 | −0.561 | −0.524 | – | −0.196 | −0.253 | −1.135
CC1=CCC2CC1C2(C)C (stereo not drawn) [alpha-Pinene] | 0.819 | 0.377 | 0.395 | −0.273 | 0.769 | −1.833 | −0.776 | – | – | –
C=C1CCC2CC1C2(C)C (stereo not drawn) [beta-Pinene] | 0.701 | 0.415 | 0.469 | −0.090 | 0.830 | −1.682 | −0.647 | – | – | –
